Measurements from BigSolDB 2.1.

COc1cccc(Nc2ccccc2)c1
Conditions | solubility (mole fraction)
in 1,2-dichloroethane, 287.65 K | 0.149
in 1,2-dichloroethane, 292.3 K | 0.182
in 1,2-dichloroethane, 297.35 K | 0.216
in 1,2-dichloroethane, 302.55 K | 0.258
in 1,2-dichloroethane, 308.65 K | 0.312
in 1,2-dichloroethane, 313.15 K | 0.355
in 1,2-dichloroethane, 318.85 K | 0.401
in 1,2-dichloroethane, 324.25 K | 0.443
in 1,2-dichloroethane, 329.55 K | 0.502
in 1,2-dichloroethane, 333.75 K | 0.545
in acetone, 287.25 K | 0.237
in acetone, 292.85 K | 0.264
in acetone, 298.95 K | 0.3
in acetone, 303.05 K | 0.327
in acetone, 308.15 K | 0.361
in acetone, 313.05 K | 0.407
in acetone, 317.55 K | 0.456
in acetone, 321.75 K | 0.513
in chloroform, 290.25 K | 0.181
in chloroform, 295.25 K | 0.218
in chloroform, 300.55 K | 0.258
in chloroform, 306.15 K | 0.308
in chloroform, 311.5 K | 0.35
in chloroform, 315.5 K | 0.386
in chloroform, 319.8 K | 0.424
in chloroform, 323.13 K | 0.456
in ethyl acetate, 287.15 K | 0.195
in ethyl acetate, 291.05 K | 0.225
in ethyl acetate, 295.55 K | 0.254
in ethyl acetate, 300.18 K | 0.283
in ethyl acetate, 306.35 K | 0.329
in ethyl acetate, 311.25 K | 0.366
in ethyl acetate, 316.25 K | 0.407
in ethyl acetate, 321.35 K | 0.442
in ethyl acetate, 326.25 K | 0.5
in ethyl acetate, 330.15 K | 0.543
in methanol, 287.25 K | 0.0134
in methanol, 291.95 K | 0.0174
in methanol, 296.65 K | 0.0214
in methanol, 301.15 K | 0.0268
in methanol, 305.35 K | 0.0339
in methanol, 311.85 K | 0.0478
in methanol, 316.25 K | 0.0579
in methanol, 321.25 K | 0.0724
in methanol, 327.15 K | 0.0972

CSc1cccc(Nc2ccccc2)c1
Conditions | solubility (mole fraction)
in 1,2-dichloroethane, 287.65 K | 0.189
in 1,2-dichloroethane, 292.3 K | 0.231
in 1,2-dichloroethane, 296.85 K | 0.278
in 1,2-dichloroethane, 300.95 K | 0.311
in 1,2-dichloroethane, 305.35 K | 0.36
in 1,2-dichloroethane, 310.45 K | 0.415
in 1,2-dichloroethane, 315.15 K | 0.466
in 1,2-dichloroethane, 319.75 K | 0.515
in 1,2-dichloroethane, 324.25 K | 0.562
in 1,2-dichloroethane, 329.55 K | 0.615
in 1,2-dichloroethane, 333.75 K | 0.654
in acetone, 287.45 K | 0.254
in acetone, 292.55 K | 0.306
in acetone, 296.15 K | 0.343
in acetone, 300.35 K | 0.381
in acetone, 305.45 K | 0.438
in acetone, 310.65 K | 0.5
in acetone, 315.15 K | 0.551
in acetone, 321.75 K | 0.643
in chloroform, 288.85 K | 0.226
in chloroform, 293.35 K | 0.263
in chloroform, 297.05 K | 0.296
in chloroform, 302 K | 0.338
in chloroform, 307.55 K | 0.391
in chloroform, 313.25 K | 0.449
in chloroform, 318.75 K | 0.511
in chloroform, 323.13 K | 0.557
in ethyl acetate, 287.85 K | 0.231
in ethyl acetate, 292.95 K | 0.281
in ethyl acetate, 297.25 K | 0.311
in ethyl acetate, 302.15 K | 0.357
in ethyl acetate, 306.65 K | 0.403
in ethyl acetate, 311.25 K | 0.452
in ethyl acetate, 316.45 K | 0.516
in ethyl acetate, 321.35 K | 0.573
in ethyl acetate, 325.85 K | 0.643
in ethyl acetate, 330.15 K | 0.711
in methanol, 287.65 K | 0.0115
in methanol, 291.55 K | 0.016
in methanol, 297.15 K | 0.0235
in methanol, 302.4 K | 0.0342
in methanol, 307.25 K | 0.046
in methanol, 311.95 K | 0.0608
in methanol, 316.35 K | 0.0761
in methanol, 321.25 K | 0.0951
in methanol, 327.15 K | 0.121
